Test results from the supplement of paper PMC10307832.

Experiments:
Assay in all cases: relative viability (nuclei count vs DMSO), 5 days (fraction); higher = more cells survive
[1] = compound: COc1cccc2cc(-c3nc([C@H]4CC[C@H](C(=O)O)CC4)n4ncnc(N)c34)[nH]c12 [OSI-027] + O=C(c1cc(Cc2n[nH]c(=O)c3ccccc23)ccc1F)N1CCN(C(=O)C2CC2)CC1 [Olaparib] (partner 8 µM)
Procedure, shortened: (§1)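 A single step with final 0.05% Triton X-100, 1% formaldehyde and 1 ug/ml Hoechst fixed the cells and stained nuclei 5 days after treatment. Lung cancer cell lines in 1536-well plates had been treated by pin tool the day after seeding with one drug alone or a fixed anchor-drug dose plus five library-drug doses (not always all listed) in √10 steps, and nuclei were counted on 4× images. Relative viability is the ratio of nuclei in treated wells to nuclei in vehicle wells, taken as the median of duplicate plates.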

[2] = compound: Cc1nc(NC(=O)N2CCC[C@H]2C(N)=O)sc1-c1ccnc(C(C)(C)C(F)(F)F)c1 [Alpelisib] + C[C@]1(O)C[C@@H](c2nc(-c3ccc4ccc(-c5ccccc5)nc4c3)c3c(N)nccn32)C1 [Linsitinib] (partner 1 µM)
Procedure, shortened: as §1

[3] = compound: CCCS(=O)(=O)Nc1ccc(F)c(C(=O)c2c[nH]c3ncc(-c4ccc(Cl)cc4)cc23)c1F [Vemurafenib] + Nc1nc2[nH]cc(CCc3ccc(C(=O)N[C@@H](CCC(=O)O)C(=O)O)cc3)c2c(=O)[nH]1 [Pemetrexed] (partner 0.2 µM)
Procedure, shortened: as §1

[4] = compound: CCCS(=O)(=O)Nc1ccc(F)c(C(=O)c2c[nH]c3ncc(-c4ccc(Cl)cc4)cc23)c1F [Vemurafenib] + CC(=O)c1c(C)c2cnc(Nc3ccc(N4CCNCC4)cn3)nc2n(C2CCCC2)c1=O [Palbociclib] (partner 0.5 µM)
Procedure, shortened: as §1

UMC-11 gave a relative viability ([1]; first compound 0.01 µM) of 0.388, a relative viability ([1]; first compound 0.03162 µM) of 0.42 and a relative viability ([1]; first compound 0.1 µM) of 0.31. It also gave a relative viability ([1]; first compound 0.3162 µM) of 0.349, a relative viability ([1]; first compound 1 µM) of 0.291 and a relative viability ([2]; first compound 0.04 µM) of 0.953. The relative viability ([2]; first compound 0.1265 µM) was 1.03, the relative viability ([2]; first compound 0.4 µM) was 1.09 and the relative viability ([2]; first compound 1.265 µM) was 0.995. For the same cell line, the relative viability ([2]; first compound 4 µM) was 0.955, the relative viability ([3]; first compound 0.03162 µM) was 0.876 and the relative viability ([3]; first compound 0.1 µM) was 0.662. It also gave a relative viability ([3]; first compound 0.3162 µM) of 0.717, a relative viability ([3]; first compound 1 µM) of 0.707 and a relative viability ([4]; first compound 0.03162 µM) of 0.328. It also gave a relative viability ([4]; first compound 0.1 µM) of 0.313 and a relative viability ([4]; first compound 1 µM) of 0.315.
